Assay results as given in US9302991B2, “Arylamide derivatives as TTX-S blockers” (RaQualia Pharma Inc., priority 2010, dated 2016).

What follows are compounds tested against T1, human Nav1.3 channels (Homo sapiens, UniProt Q9NY46) (assay: FRET assay, human Nav1.3 (EFS on FDSS)). Conditions: HEK293 cells expressing human Nav1.3, read-out: IC50 against Nav1.3.
T1 construct: expressed in transfected cells; host or cells: HEK293
T1 sequence (Q9NY46 whole entry): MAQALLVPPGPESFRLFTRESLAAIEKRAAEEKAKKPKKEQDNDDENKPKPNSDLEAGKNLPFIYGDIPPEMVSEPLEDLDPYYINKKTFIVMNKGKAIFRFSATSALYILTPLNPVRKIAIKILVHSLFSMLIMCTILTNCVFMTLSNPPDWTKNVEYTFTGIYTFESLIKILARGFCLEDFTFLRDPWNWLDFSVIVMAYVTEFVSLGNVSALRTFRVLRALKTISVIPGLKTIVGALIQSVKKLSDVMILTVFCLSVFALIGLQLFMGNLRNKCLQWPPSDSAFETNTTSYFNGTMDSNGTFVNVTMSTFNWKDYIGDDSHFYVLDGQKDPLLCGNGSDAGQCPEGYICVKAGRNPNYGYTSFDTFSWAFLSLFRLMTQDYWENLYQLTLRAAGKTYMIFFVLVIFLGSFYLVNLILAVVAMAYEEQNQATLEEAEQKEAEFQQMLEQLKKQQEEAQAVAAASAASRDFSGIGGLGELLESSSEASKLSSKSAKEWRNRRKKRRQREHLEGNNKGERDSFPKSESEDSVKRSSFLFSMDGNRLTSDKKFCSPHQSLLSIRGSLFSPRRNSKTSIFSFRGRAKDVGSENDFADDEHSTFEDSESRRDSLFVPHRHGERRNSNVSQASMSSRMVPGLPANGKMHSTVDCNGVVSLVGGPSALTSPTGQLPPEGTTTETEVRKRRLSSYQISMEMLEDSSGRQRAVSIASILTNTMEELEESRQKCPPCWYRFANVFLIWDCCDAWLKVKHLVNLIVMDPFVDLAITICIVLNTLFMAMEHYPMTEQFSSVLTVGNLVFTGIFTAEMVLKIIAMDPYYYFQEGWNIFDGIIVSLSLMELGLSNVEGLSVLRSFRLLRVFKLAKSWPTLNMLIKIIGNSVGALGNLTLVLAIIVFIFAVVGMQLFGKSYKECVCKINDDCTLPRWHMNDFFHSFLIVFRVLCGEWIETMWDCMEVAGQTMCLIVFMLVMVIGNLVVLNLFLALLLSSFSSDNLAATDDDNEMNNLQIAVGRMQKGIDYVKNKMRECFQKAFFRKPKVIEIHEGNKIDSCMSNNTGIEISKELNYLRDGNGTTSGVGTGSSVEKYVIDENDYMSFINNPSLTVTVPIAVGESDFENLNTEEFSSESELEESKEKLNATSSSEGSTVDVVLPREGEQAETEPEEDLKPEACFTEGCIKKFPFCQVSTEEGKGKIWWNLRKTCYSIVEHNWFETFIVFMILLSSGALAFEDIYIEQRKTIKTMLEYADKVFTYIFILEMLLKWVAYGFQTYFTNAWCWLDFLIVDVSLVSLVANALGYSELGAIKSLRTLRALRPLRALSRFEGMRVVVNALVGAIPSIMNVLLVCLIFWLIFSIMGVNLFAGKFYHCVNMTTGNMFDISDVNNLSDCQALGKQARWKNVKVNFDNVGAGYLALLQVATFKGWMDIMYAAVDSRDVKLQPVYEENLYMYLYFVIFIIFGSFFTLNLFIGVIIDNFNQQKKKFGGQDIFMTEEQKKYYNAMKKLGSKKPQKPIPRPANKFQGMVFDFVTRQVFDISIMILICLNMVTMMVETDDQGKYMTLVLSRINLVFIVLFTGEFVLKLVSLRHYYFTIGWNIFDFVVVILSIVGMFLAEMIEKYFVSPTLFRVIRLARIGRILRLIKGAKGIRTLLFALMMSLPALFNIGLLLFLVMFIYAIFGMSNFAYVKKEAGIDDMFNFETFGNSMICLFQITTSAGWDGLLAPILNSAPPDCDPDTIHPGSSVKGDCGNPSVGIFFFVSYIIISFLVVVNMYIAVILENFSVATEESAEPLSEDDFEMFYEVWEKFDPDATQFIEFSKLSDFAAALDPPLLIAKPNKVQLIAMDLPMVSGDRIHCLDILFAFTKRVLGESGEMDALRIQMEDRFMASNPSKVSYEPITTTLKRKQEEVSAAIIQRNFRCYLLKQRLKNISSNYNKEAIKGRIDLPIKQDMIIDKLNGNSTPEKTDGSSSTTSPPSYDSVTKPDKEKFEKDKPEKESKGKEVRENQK
Type: cell-based
Description: The inhibitory activities of compounds against voltage gated sodium channels are determined by methodology well known in the art.
The ability of the aryl substituted carboxamide derivatives of the formula (I) to inhibit the NaV1.3, Nav1.7 and Nav1.5 channels is measured by Fluorescence Resonance Energy Transfer (FRET) assay and electrophysiology assay described below.
This screen is used to determine the effects of compounds on human Nav1.3, human Nav1.7, and human Nav1.5 channels, utilising electrical field stimulation (EFS) system in 96-well plate format on FDSS (Hamamatsu Photonics) platform. The change of membrane potential is monitored with FRET dye pair, oxonol (DiSBAC2(3)) and coumarin (CC2-DMPE).
Each HEK293 cells expressing human Nav1.3 channels and HEK293 cells expressing human Nav1.5 channels are grown in T225 flasks, in a 5% CO2 humidified incubator to about 80% confluence. Media composition consists of Dulbecco's Modified Eagle Medium (high glucose), 10% FCS, 100 units/mL Penicillin, 100 microgram/mL Streptomycin and 500 microgram/mL Geneticine.
Protocol: • Seed each cell lines (1×10^5 cells/well) into poly-D-lysine coated 96-well plates prior to experimentation. • Incubate at 37° C. in 5% CO2 for 24 hours. • Wash each well with assay buffer (140 mM NaCl, 4.5 mM KCl, 10 mM D-Glucose, 2 mM CaCl2, 1 mM MgCl2, 10 mM HEPES, pH 7.4 adjusted with NaOH) twice. • Add 1st loading solution containing 10 microM CC2-DMPE and 0.06% Pluronic F-127 in assay buffer. • Incubate the plate at room temperature in dark for 1 hour. • Remove 1st loading solution and added 2nd loading solution containing 15 microM DiSBAC2(3), 0.555 mM VABSC-1 and 0.004% Pluronic F-127 in assay buffer. • Place the plate under the dark at room temperature for 25 minutes. • Add compound solutions into the assay plate. • Set the assay plate in FDSS and placed an EFS device on the plate. • Measure EFS-induced fluorescent response by FDSS.
The data are analyzed and reported as normalized ratios of intensities measured at […]. The process of calculating these ratios is performed as follows:
This analysis is performed using a computerized specific program designed for FDSS generated data. Fluorescence ratio values are plotted using XLfit to determine an IC50 value for each compound.
`COCCNc1nc(C)cc(C(=O)NC(C)c2cnc(OCC(F)(F)F)c(C)c2)n1` (single isomer, unassigned) [Example 475, 2-((2-methoxyethyl)amino)-6-methyl-N-(1-(5-methyl-6-(2,2,2-trifluoroethoxy)pyridin-3-yl)ethyl)pyrimidine-4-carboxamide] gave an IC50 of less than 1000 nM. For `Cc1cc(C(C)NC(=O)c2ccc3cccc(O)c3n2)cnc1OCC(F)(F)F` (single isomer, unassigned) [Example 535, 8-hydroxy-N-(1-(5-methyl-6-(2,2,2-trifluoroethoxy)pyridin-3-yl)ethyl)quinoline-2-carboxamide], the IC50 was less than 1000 nM. `C=C(C)C(=O)Nc1cc(C(=O)NC(C)c2ccc(OCC(F)(F)F)nc2)cc(C)n1` (single isomer, unassigned) [Example 571, 2-methacrylamido-6-methyl-N-(1-(6-(2,2,2-trifluoroethoxy)pyridin-3-yl)ethyl)isonicotinamide] was tested, and the IC50 was less than 1000 nM. In the case of `CC(C)C(=O)Nc1cc(C(=O)NC(C)c2ccc(OCC(F)(F)C(F)(F)F)nc2)ccn1` (single isomer, unassigned) [Example 690, 2-isobutyramido-N-(1-(6-(2,2,3,3,3-pentafluoropropoxy)pyridin-3-yl)ethyl)isonicotinamide], the IC50 is reported as less than 1000 nM. In the case of `CCC(=O)Nc1cc(C(=O)NC(C)c2ccc(OCC(F)(F)C(F)(F)F)nc2)cc(C)n1` (single isomer, unassigned) [Example 692, 2-methyl-N-(1-(6-(2,2,3,3,3-pentafluoropropoxy)pyridin-3-yl)ethyl)-6-propionamidoisonicotinamide], the IC50 is reported as less than 1000 nM. In the case of `CC(NC(=O)c1ccnc(NC(=O)C2CC2)n1)c1ccc(OCC(F)(F)C(F)(F)F)nc1` (single isomer, unassigned) [Example 694, 2-(cyclopropanecarboxamido)-N-(1-(6-(2,2,3,3,3-pentafluoropropoxy)pyridin-3-yl)ethyl)pyrimidine-4-carboxamide], the IC50 is reported as less than 1000 nM. For `Cc1cc(C(=O)NC(C)c2ccc(OCC(F)F)c(Cl)c2)nc(NC(=O)C2CC2)n1` (single isomer, unassigned) [Example 984, N-(1-(3-chloro-4-(2,2-difluoroethoxy)phenyl)ethyl)-2-(cyclopropanecarboxamido)-6-methylpyrimidine-4-carboxamide], the IC50 was less than 1000 nM. Work on `CC(=O)Nc1cc(C(=O)NCc2cnc(OCC(F)(F)F)c(Cl)c2)ccn1` [Example 93, 2-acetamido-N-((5-chloro-6-(2,2,2-trifluoroethoxy)pyridin-3-yl)methyl)isonicotinamide] yielded an IC50 of less than 1000 nM. Work on `O=C(NCc1cnc(OCC(F)(F)F)c(Cl)c1)c1ccnc(NC(=O)C2CC2)c1` [Example 95, N-((5-chloro-6-(2,2,2-trifluoroethoxy)pyridin-3-yl)methyl)-2-(cyclopropanecarboxamido)isonicotinamide] yielded an IC50 of less than 1000 nM. `CCC(=O)Nc1cc(C(=O)NCc2ccc(OCC(F)(F)F)nc2)ccn1` [Example 151, 2-propionamido-N-((6-(2,2,2-trifluoroethoxy)pyridin-3-yl)methyl)isonicotinamide] showed an IC50 of less than 1000 nM. With `CCC(=O)Nc1cc(C(=O)NCc2cccc(OCC(F)(F)F)n2)ccn1` [Example 464, 2-propionamido-N-((6-(2,2,2-trifluoroethoxy)pyridin-2-yl)methyl)isonicotinamide] the IC50 was less than 1000 nM. Compound `O=C(NCc1cccc(OCC(F)(F)F)n1)c1ccnc(NC(=O)C2CC2)c1` [Example 465, 2-(cyclopropanecarboxamido)-N-((6-(2,2,2-trifluoroethoxy)pyridin-2-yl)methyl)isonicotinamide] has an IC50 of less than 1000 nM. In the case of `CC(=O)Nc1cc(C(=O)NCc2cccc(OCC(F)(F)F)n2)cc(C)n1` [Example 466, 2-acetamido-6-methyl-N-((6-(2,2,2-trifluoroethoxy)pyridin-2-yl)methyl)isonicotinamide], the IC50 is reported as less than 1000 nM. Work on `CC(C)C(=O)Nc1cc(C(=O)NCc2cccc(OCC(F)(F)F)n2)ccn1` [Example 468, 2-isobutyramido-N-((6-(2,2,2-trifluoroethoxy)pyridin-2-yl)methyl)isonicotinamide] yielded an IC50 of less than 1000 nM. `CCCC(=O)Nc1cc(C(=O)NCc2cccc(OCC(F)(F)F)n2)ccn1` [Example 469, 2-butyramido-N-((6-(2,2,2-trifluoroethoxy)pyridin-2-yl)methyl)isonicotinamide] was tested, and the IC50 was less than 1000 nM. For `Cc1cc(C(=O)NCc2cccc(OCC(F)(F)F)n2)cc(NC(=O)C(C)C)n1` [Example 496, 2-isobutyramido-6-methyl-N-((6-(2,2,2-trifluoroethoxy)pyridin-2-yl)methyl)isonicotinamide], the IC50 was less than 1000 nM. Work on `CCNC(=O)c1cc(C(=O)NCc2ccc(OCC(F)(F)F)nc2OC)cc(C)n1` [Example 508, N2-ethyl-N4-((2-methoxy-6-(2,2,2-trifluoroethoxy)pyridin-3-yl)methyl)-6-methylpyridine-2,4-dicarboxamide] yielded an IC50 of less than 1000 nM. Work on `Cc1cc(C(=O)NCc2cnc(OCC(F)(F)F)cc2C)cc(NC(=O)C(C)C)n1` [Example 516, 2-isobutyramido-6-methyl-N-((4-methyl-6-(2,2,2-trifluoroethoxy)pyridin-3-yl)methyl)isonicotinamide] yielded an IC50 of less than 1000 nM. `Cc1ccc(OCC(F)(F)F)nc1CNC(=O)c1ccnc(NC(=O)C(C)C)c1` [Example 566, 2-isobutyramido-N-((3-methyl-6-(2,2,2-trifluoroethoxy)pyridin-2-yl)methyl)isonicotinamide] was tested, and the IC50 was less than 1000 nM. `Cc1ccc(OCC(F)(F)F)nc1CNC(=O)c1ccnc(NC(=O)C2CC2)c1` [Example 568, 2-(cyclopropanecarboxamido)-N-((3-methyl-6-(2,2,2-trifluoroethoxy)pyridin-2-yl)methyl)isonicotinamide] was tested, and the IC50 was less than 1000 nM. `CCC(=O)Nc1cc(C(=O)NCc2cc(C(F)(F)F)ccc2F)ccn1` [Example 572, N-(2-fluoro-5-(trifluoromethyl)benzyl)-2-propionamidoisonicotinamide] gave an IC50 of less than 1000 nM. `O=C(NCc1cc(C(F)(F)F)ccc1F)c1ccnc(NC(=O)C2CC2)c1` [Example 573, 2-(cyclopropanecarboxamido)-N-(2-fluoro-5-(trifluoromethyl)benzyl)isonicotinamide] was tested, and the IC50 was less than 1000 nM. `CC(=O)Nc1cc(C(=O)NCc2cc(C(F)(F)F)ccc2F)cc(C)n1` [Example 574, 2-acetamido-N-(2-fluoro-5-(trifluoromethyl)benzyl)-6-methylisonicotinamide] gave an IC50 of less than 1000 nM. With `Cc1cc(C(=O)NCc2cc(C(F)(F)F)ccc2F)cc(NC(=O)C(C)C)n1` [Example 575, N-(2-fluoro-5-(trifluoromethyl)benzyl)-2-isobutyramido-6-methylisonicotinamide] the IC50 was less than 1000 nM. For `Cc1cc(CNC(=O)c2ccnc(NC(=O)C(C)C)c2)nc(OCC(F)(F)F)c1` [Example 576, 2-isobutyramido-N-((4-methyl-6-(2,2,2-trifluoroethoxy)pyridin-2-yl)methyl)isonicotinamide], the IC50 was less than 1000 nM. `Cc1cc(CNC(=O)c2cc(C)nc(NC(=O)C(C)C)c2)nc(OCC(F)(F)F)c1` [Example 577, 2-isobutyramido-6-methyl-N-((4-methyl-6-(2,2,2-trifluoroethoxy)pyridin-2-yl)methyl)isonicotinamide] showed an IC50 of less than 1000 nM. `Cc1cc(CNC(=O)c2ccnc(NC(=O)C3CC3)c2)nc(OCC(F)(F)F)c1` [Example 578, 2-(cyclopropanecarboxamido)-N-((4-methyl-6-(2,2,2-trifluoroethoxy)pyridin-2-yl)methyl)isonicotinamide] showed an IC50 of less than 1000 nM. In the case of `CCC(=O)Nc1cc(C(=O)NCc2ccc(F)c(OC(F)(F)F)c2)cc(C)n1` [Example 591, N-(4-fluoro-3-(trifluoromethoxy)benzyl)-2-methyl-6-propionamidoisonicotinamide], the IC50 is reported as less than 1000 nM. `CCC(=O)Nc1cc(C(=O)NCc2cc(C)cc(OC(F)(F)F)c2)ccn1` [Example 598, N-(3-methyl-5-(trifluoromethoxy)benzyl)-2-propionamidoisonicotinamide] gave an IC50 of less than 1000 nM. Work on `Cc1cc(CNC(=O)c2ccnc(NC(=O)C3CC3)c2)cc(OC(F)(F)F)c1` [Example 599, 2-(cyclopropanecarboxamido)-N-(3-methyl-5-(trifluoromethoxy)benzyl)isonicotinamide] yielded an IC50 of less than 1000 nM. `Cc1cc(CNC(=O)c2ccnc(NC(=O)C3CC3)n2)cc(OC(F)(F)F)c1` [Example 604, 2-(cyclopropanecarboxamido)-N-(3-methyl-5-(trifluoromethoxy)benzyl)pyrimidine-4-carboxamide] gave an IC50 of less than 1000 nM. `CCC(=O)Nc1cc(C(=O)NCc2cc(OC(F)(F)F)ccc2F)ccn1` [Example 607, N-(2-fluoro-5-(trifluoromethoxy)benzyl)-2-propionamidoisonicotinamide] showed an IC50 of less than 1000 nM.
